The text below walks through data of US11840686B2, “Modulation of prekallikrein (PKK) expression” (Ionis Pharmaceuticals, Inc., priority 2013, dated 2023).

For data set [1], the system named is human PKK mRNA. Put plainly: Dose-dependent antisense inhibition of human PKK in HepaRG cells, 0.19-5.00 uM (Example 5). The data set is classed as cell-based. Particulars: for percent inhibition of PKK mRNA, 0.19 μM: 0.19 μM antisense oligonucleotide; for percent inhibition of PKK mRNA, 0.56 μM: 0.56 μM antisense oligonucleotide; for percent inhibition of PKK mRNA, 1.67 μM: 1.67 μM antisense oligonucleotide; for percent inhibition of PKK mRNA, 5.00 μM: 5.00 μM antisense oligonucleotide. Put shortly: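 PKK mRNA knockdown was measured by real-time PCR (primer probe set RTS3454) about 16 h after electroporating 20,000 HepaRG cells per well with oligonucleotide at four doses from 0.19 to 5.00 μM. Levels were adjusted to RIBOGREEN-measured total RNA, and IC50 values were calculated.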

For data set [2], the system named is human PKK mRNA. Put plainly: Antisense inhibition of human PKK mRNA in HepaRG cells, 5,000 nM (Example 2). The data set is classed as cell-based. Put shortly:
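qRT-PCR (RTS3454) read-out, RIBOGREEN-normalized; % inhibition vs untreated cells. HepaRG, 20,000 cells/well, electroporation, 5,000 nM ASO, ~24 h.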

Where [3] appears, read: HepaRG cells, electroporation, approximately 16 hours, Table 37.
[4] abbreviates: 4 point dose response, HepaRG cells, Table 37.
The mark [5] stands for this setting: Table 34, HepaRG, electroporation, ~16 h.
The mark [6] stands for this setting: human PKK mRNA in HepaRG cells, 5-10-5 gapmers, Table 14.
Where [7] appears, read: HepaRG cells, electroporation, approximately 16 hours, Table 39.
Setting [8] is: 4 point dose response, HepaRG cells, Table 39.
The mark [9] stands for this setting: HepaRG cells, electroporation, approximately 16 hours, Table 35.

Strand notation (5' to 3'): a small letter for the sugar, then the base; units joined by * are phosphorothioate-linked, units joined directly phosphodiester-linked; [ ] holds rarer units or linkages, { } end groups; capitals alone tell only the bases. e = 2'-O-(2-methoxyethyl) (MOE); [5mC] = 5-methylcytosine; d = 2'-deoxy (DNA)

The term IC50 denotes the concentration at which inhibition is half-maximal. A high value points to weaker potency in that assay. What is called % inhibition is how much of the control response was suppressed. Turning to “547483 (antisense eT*e[5mC]*e[5mC]*e[5mC]*e[5mC]*d[5mC]*dT*dT*d[5mC]*dT*dT*dT*dA*dT*dA*eG*e[5mC]*e[5mC]*eA*eG) [compound 547483]”, in the data set with human PKK mRNA [1] (setting [3]), the “percent inhibition of PKK at 0.19 μM” value is recorded as 0%, the “percent inhibition of PKK at 0.56 μM” value came out at 9%, the “percent inhibition of PKK at 1.67 μM” value worked out at 49% and the “percent inhibition of PKK at 5.00 μM” value was 71%. The substance further displayed an IC50 in the data set with human PKK mRNA [1] (setting [4]) of 2100 nM. Moreover, the “% inhibition” value in the data set with human PKK mRNA [2] (Table 9 experiment, HepaRG cells, 20,000 cells per well, electroporation with 5,000 nM antisense oligonucleotide, approx. 24 hours, PKK mRNA by RT-PCR (RTS3454), relative to untreated control cells) came to 71%. Besides, the “% inhibition” value in the data set on human PKK mRNA [2] (Table 10 experiment, HepaRG cells, 20,000 cells per well, electroporation with 5,000 nM antisense oligonucleotide, approx. 24 hours, PKK mRNA by RT-PCR (RTS3454), relative to untreated control cells) is listed as 77%.

With “547587 (e[5mC]*eT*eA*eT*eA*dA*d[5mC]*dA*dG*dT*dA*dT*d[5mC]*dA*d[5mC]*eT*eG*eT*e[5mC]*e[5mC]; antisense) [compound 547587]”, the “percent inhibition of PKK at 5.00 μM” value in the data set with human PKK mRNA [1] (HepaRG cells, electroporation, approximately 16 hours, Table 41) came to 97%. For the same substance, in the data set on human PKK mRNA [1] (0.19 0μM, HepaRG cells, electroporation, approximately 16 hours, Table 41), the “percent inhibition of PKK at 0.19 0μM” value was 38%. Also, in the data set with human PKK mRNA [1] (0.56 0μM, HepaRG cells, electroporation, approximately 16 hours, Table 41), the “percent inhibition of PKK at 0.56 0μM” value is listed as 64%. For the same substance, the “percent inhibition of PKK at 1.67 1μM” value in the data set on human PKK mRNA [1] (1.67 1μM, HepaRG cells, electroporation, approximately 16 hours, Table 41) was 91%. The substance also yielded a 50% inhibitory concentration (IC50) in the data set on human PKK mRNA [1] (4 point dose response, HepaRG cells, Table 41) of 300 nM. Further, in the data set with human PKK mRNA [1] (setting [5]), the “percent inhibition of PKK at 0.19 μM” value is 20%, the “percent inhibition of PKK at 0.56 μM” value was 62%, the “percent inhibition of PKK at 1.67 μM” value came to 84% and the “percent inhibition of PKK at 5.00 μM” value is 86%. This substance also had an IC50 in the data set with human PKK mRNA [1] (Table 34, PKK mRNA, HepaRG, electroporation, ~16 h) of 500 nM. In addition, the “% inhibition” value in the data set on human PKK mRNA [2] (setting [6]) is 96%.

As to “546870 (e[5mC]*eT*eG*eT*eA*d[5mC]*d[5mC]*dT*dA*dT*dA*dA*d[5mC]*dT*d[5mC]*eT*eA*eA*e[5mC]*eA; antisense) [compound 546870]”, in the data set with human PKK mRNA [1] (setting [7]), the “percent inhibition of PKK at 0.19 μM” value turned out to be 35%, the “percent inhibition of PKK at 0.56 μM” value amounted to 42%, the “percent inhibition of PKK at 1.67 μM” value amounted to 80% and the “percent inhibition of PKK at 5.00 μM” value came to 95%. The substance also registered an IC50 in the data set on human PKK mRNA [1] (setting [8]) of 500 nM. Further, in the data set on human PKK mRNA [1] (HepaRG cells), the “percent inhibition of PKK mRNA, 0.19 μM” value was 36%; the “percent inhibition of PKK mRNA, 0.56 μM” value was 34%; the “percent inhibition of PKK mRNA, 1.67 μM” value is given as 61%; the “percent inhibition of PKK mRNA, 5.00 μM” value is given as 91%. The same substance came in with an IC50 in the data set with human PKK mRNA [1] (HepaRG cells, 0.19-5.00 μM) of 1000 nM. For the same substance, the “% inhibition” value in the data set with human PKK mRNA [2] (setting [6]) turned out to be 87%.

For “546939 (eG*e[5mC]*e[5mC]*eA*eT*d[5mC]*dT*dG*dG*dT*dT*dA*dG*d[5mC]*d[5mC]*eT*e[5mC]*e[5mC]*eG*eA; antisense) [compound 546939]”, in the data set on human PKK mRNA [1] (setting [3]), the “percent inhibition of PKK at 0.19 μM” value stood at 1%, the “percent inhibition of PKK at 0.56 μM” value is given as 66%, the “percent inhibition of PKK at 1.67 μM” value was found to be 86% and the “percent inhibition of PKK at 5.00 μM” value came out at 90%. Moreover, inhibition in the data set with human PKK mRNA [1] (setting [4]) was half-maximal at 600 nM (IC50). Also, in the data set with human PKK mRNA [1] (HepaRG cells), the “percent inhibition of PKK mRNA, 0.19 μM” value stood at 16%; the “percent inhibition of PKK mRNA, 0.56 μM” value amounted to 71%; the “percent inhibition of PKK mRNA, 1.67 μM” value stood at 96%; the “percent inhibition of PKK mRNA, 5.00 μM” value amounted to 95%. In addition, in the data set on human PKK mRNA [1] (HepaRG cells, 0.19-5.00 μM), inhibition was half-maximal at 400 nM (IC50). In addition, the “% inhibition” value in the data set on human PKK mRNA [2] (HepaRG cells, 5,000 nM antisense oligonucleotide, 5-10-5 gapmers, Table 16) is recorded as 89%.

With “546852 (e[5mC]*eA*eG*eT*eA*dT*d[5mC]*dA*d[5mC]*dT*dG*dT*d[5mC]*d[5mC]*dT*eA*eT*eA*eT*e[5mC]; antisense) [compound 546852]”, in the data set on human PKK mRNA [1] (setting [9]), the “percent inhibition of PKK at 0.19 μM” value amounted to 19%, the “percent inhibition of PKK at 0.56 μM” value amounted to 40%, the “percent inhibition of PKK at 1.67 μM” value amounted to 78% and the “percent inhibition of PKK at 5.00 μM” value was determined as 85%. In addition, the IC50 with human PKK mRNA [1] (4 point dose response, HepaRG cells, Table 35) was 800 nM. For the same substance, the “% inhibition” value with human PKK mRNA [2] (setting [6]) was found to be 94%.

Regarding “546876 (eG*eT*e[5mC]*e[5mC]*eT*dA*dT*dA*dT*d[5mC]*dA*d[5mC]*dT*dG*dT*eA*e[5mC]*e[5mC]*eT*eG; antisense) [compound 546876]”, in the data set on human PKK mRNA [1] (setting [7]), the “percent inhibition of PKK at 0.19 μM” value is 0%, the “percent inhibition of PKK at 0.56 μM” value was determined as 50%, the “percent inhibition of PKK at 1.67 μM” value was 85% and the “percent inhibition of PKK at 5.00 μM” value was 95%. In the data set on human PKK mRNA [1] (setting [8]), this substance had an IC50 of 800 nM. For the same substance, the “% inhibition” value in the data set on human PKK mRNA [2] (setting [6]) was 87%.
